Consider one molecule from patent US11572590B2, “Methods for evaluating tumor cell spheroids using 3D microfluidic cell culture device” (Dana-Farber Cancer Institute, Inc., priority 2017, dated 2023).

Read-outs that look alike come from different tables or passages of the source.

Experiment in all cases: SelectScreen Kinase Profiling, single point inhibition and IC50 for off-target kinases
Format in all cases: biochemical

For experiment [1], the target named is T1, off-target kinases (Homo sapiens, UniProt Q9UPZ9).
T1 sequence (Q9UPZ9 1-632): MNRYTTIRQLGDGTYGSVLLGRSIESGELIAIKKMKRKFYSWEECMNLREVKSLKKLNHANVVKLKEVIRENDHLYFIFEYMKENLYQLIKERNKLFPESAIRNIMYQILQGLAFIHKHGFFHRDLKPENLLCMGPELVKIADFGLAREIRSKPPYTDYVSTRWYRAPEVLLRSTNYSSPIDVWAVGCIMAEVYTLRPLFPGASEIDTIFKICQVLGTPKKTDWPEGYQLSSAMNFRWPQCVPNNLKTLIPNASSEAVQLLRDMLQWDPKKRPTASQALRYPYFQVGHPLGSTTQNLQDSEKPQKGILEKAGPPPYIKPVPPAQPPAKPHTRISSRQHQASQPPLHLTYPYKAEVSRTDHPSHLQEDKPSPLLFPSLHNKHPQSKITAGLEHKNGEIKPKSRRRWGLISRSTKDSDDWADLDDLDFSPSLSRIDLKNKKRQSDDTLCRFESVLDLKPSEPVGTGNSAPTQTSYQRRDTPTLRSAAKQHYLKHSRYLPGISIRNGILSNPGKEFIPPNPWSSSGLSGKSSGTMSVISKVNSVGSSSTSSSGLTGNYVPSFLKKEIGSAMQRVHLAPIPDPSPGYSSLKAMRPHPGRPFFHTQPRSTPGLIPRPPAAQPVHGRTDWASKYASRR
The note with it: ICK, LanthaScreen Binding. For orientation: TR-FRET usually uses a lanthanide donor and a delayed reading to cut background.

The target of experiment [2] is T2, off-target kinases (Homo sapiens, UniProt P51813).
T2 sequence (P51813 1-675): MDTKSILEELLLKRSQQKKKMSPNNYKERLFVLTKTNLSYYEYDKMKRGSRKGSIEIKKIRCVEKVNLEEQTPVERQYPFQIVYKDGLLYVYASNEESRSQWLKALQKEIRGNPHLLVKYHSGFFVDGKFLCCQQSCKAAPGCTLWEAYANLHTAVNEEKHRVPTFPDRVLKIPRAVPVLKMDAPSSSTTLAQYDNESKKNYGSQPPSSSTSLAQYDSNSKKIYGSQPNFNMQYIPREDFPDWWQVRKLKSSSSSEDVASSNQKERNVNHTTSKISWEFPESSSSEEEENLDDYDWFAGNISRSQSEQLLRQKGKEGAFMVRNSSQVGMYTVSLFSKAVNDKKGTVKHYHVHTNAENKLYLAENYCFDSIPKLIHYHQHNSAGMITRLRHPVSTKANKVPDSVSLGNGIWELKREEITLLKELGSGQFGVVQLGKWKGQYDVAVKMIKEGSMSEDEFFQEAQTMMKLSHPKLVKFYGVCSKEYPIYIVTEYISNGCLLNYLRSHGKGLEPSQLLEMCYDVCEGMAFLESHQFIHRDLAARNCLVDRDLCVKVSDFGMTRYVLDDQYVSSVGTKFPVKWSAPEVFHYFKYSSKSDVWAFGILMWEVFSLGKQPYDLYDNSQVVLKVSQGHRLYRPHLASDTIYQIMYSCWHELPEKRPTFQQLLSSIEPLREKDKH
The note with it: BMX, ZLYTE, ATP Km app.

For experiment [3], the target named is off-target kinases (Homo sapiens, UniProt P00519, T315I). The note with it: ABL1 T315I, mutant y, ZLYTE, ATP Km app.
Experiment [4] addresses off-target kinases (Homo sapiens, UniProt O00443). The note with it: PIK3C2A (PI3K-C2 alpha); Cmpd1 1000 μM; ATP Km app; Adapta.
The target of experiment [5] is off-target kinases (Homo sapiens, UniProt Q9Y6M4). The note with it: CSNK1G3 (CK1 gamma 3), ZLYTE, ATP Km app.
Sequence of off-target kinases (Homo sapiens, UniProt Q9Y6M4) (Q9Y6M4 whole entry): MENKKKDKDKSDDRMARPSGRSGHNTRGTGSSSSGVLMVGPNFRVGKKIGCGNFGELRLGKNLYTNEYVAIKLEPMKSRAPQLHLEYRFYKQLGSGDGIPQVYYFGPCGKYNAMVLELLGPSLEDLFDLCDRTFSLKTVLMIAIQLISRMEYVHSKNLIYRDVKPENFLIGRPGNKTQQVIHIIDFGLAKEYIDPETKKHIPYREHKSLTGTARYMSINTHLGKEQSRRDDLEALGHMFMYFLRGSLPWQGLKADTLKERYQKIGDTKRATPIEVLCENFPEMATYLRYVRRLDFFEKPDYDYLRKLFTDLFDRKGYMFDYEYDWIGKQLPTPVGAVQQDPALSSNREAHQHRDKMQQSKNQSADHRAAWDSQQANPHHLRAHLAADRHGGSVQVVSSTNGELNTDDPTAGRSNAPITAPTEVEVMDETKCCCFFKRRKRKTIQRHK

Sequence of off-target kinases (Homo sapiens, UniProt O00443) (O00443 whole entry): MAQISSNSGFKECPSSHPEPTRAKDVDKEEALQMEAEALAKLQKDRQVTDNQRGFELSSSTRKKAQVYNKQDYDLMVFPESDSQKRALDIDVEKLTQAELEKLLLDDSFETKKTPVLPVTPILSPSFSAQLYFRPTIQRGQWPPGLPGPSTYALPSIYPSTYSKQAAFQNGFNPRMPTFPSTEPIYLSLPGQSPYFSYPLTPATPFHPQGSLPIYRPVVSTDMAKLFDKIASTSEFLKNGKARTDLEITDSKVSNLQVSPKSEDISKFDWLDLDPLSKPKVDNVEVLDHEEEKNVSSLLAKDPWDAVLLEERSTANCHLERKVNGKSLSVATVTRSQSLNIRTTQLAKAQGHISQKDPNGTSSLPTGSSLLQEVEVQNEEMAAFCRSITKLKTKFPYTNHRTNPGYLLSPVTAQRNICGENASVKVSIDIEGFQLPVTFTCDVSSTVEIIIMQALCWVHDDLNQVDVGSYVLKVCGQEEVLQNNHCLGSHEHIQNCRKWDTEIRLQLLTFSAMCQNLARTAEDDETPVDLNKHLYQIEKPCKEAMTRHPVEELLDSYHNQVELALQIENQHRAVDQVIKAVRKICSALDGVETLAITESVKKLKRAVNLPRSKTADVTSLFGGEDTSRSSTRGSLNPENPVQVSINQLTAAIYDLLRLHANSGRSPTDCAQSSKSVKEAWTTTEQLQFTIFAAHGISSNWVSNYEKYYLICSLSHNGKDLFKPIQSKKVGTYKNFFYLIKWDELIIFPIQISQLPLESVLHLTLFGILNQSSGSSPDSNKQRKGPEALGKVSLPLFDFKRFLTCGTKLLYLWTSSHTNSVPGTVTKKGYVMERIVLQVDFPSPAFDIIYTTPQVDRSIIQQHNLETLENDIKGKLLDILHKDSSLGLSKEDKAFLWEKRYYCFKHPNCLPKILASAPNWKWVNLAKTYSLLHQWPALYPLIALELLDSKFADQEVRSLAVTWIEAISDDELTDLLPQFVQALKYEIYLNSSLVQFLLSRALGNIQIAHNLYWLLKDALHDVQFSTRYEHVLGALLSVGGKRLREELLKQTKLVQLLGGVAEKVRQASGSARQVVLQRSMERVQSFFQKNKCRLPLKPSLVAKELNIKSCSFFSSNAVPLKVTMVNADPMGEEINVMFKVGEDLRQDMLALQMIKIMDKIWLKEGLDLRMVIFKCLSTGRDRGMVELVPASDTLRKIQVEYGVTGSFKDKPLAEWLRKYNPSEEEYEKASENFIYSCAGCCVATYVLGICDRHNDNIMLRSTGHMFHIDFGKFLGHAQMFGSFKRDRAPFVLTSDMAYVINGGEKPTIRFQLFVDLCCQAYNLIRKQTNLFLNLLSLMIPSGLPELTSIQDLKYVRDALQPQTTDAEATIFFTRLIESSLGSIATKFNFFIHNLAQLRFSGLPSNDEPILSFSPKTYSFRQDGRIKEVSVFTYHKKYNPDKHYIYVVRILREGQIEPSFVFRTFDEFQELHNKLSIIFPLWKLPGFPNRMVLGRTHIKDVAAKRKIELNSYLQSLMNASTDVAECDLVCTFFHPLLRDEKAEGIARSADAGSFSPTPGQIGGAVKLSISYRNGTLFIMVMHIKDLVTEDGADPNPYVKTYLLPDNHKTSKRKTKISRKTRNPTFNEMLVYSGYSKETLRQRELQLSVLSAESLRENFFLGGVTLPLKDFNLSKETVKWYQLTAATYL

Consider `N#Cc1cc(-c2ncnc(Nc3ccc(N4CCN(C5COC5)CC4)cc3)n2)ccc1OC1CCOCC1` [Compound 1, 5-(4-((4-(4-(oxetan-3-yl)piperazin-1-yl)phenyl)amino)-1,3,5-triazin-2-yl)-2-((tetrahydro-2H-pyran-4-yl)oxy)benzonitrile], for which the inhibition was determined as 22% on off-target kinases [1] (read-out: % Inhibition 1); 22% at off-target kinases [1] (read-out: % Inhibition 2); 22% at off-target kinases [1] (read-out: % Inhibition Avg); 12% on off-target kinases [2] (read-out: % Inhibition 1); 13% on off-target kinases [2] (read-out: % Inhibition 2); 12% on off-target kinases [2] (read-out: % Inhibition Avg). The inhibition at off-target kinases [3] (read-out: % Inhibition 1) was 30%; on off-target kinases [3] (read-out: % Inhibition 2), 29%; on off-target kinases [3] (read-out: % Inhibition Avg) it was 29%; on off-target kinases [5] (read-out: % Inhibition 1) it was 4%; on off-target kinases [5] (read-out: % Inhibition 2) it was -2%; at off-target kinases [5] (read-out: % Inhibition Avg), 1%. The “% Inhibition 1” value on off-target kinases [4] was −7%. Besides, at off-target kinases [4], the “% Inhibition 2” value is listed as −9%. Also, the “% Inhibition Avg” value on off-target kinases [4] is −8%.

What is called inhibition is the relative decrease from the control value, in per cent.
